Measured values reported in publication PMC8252765, “Human Oxygenase Variants Employing a Single Protein Fe^II Ligand Are Catalytically Active” (Angewandte Chemie (International Ed. in English), 2021).
Substitutions are numbered along the chain they refer to. Like-named read-outs stand apart in the source and are kept apart here. Blank lines part the entries; values can stand above or below the compound they belong to.

Columns and labels:
[1] = target: T1, H679A His6-AspH315-758 (Homo sapiens, UniProt Q12797, H679A); assay: Steady-state kinetics of H679A AspH by SPE-MS; format: biochemical; conditions: H679A AspH 0.2 μM, parameter for the varied (co)substrate (label), 25 mM HEPES pH 7.5, n=3
T1 construct: containing H679A or H725A His6-AspH315-758 variant (0.2 μM); made in house; host or cells: E. coli BL21 (DE3), pET-28a(+)
T1 sequence (Q12797 315-758 H679A): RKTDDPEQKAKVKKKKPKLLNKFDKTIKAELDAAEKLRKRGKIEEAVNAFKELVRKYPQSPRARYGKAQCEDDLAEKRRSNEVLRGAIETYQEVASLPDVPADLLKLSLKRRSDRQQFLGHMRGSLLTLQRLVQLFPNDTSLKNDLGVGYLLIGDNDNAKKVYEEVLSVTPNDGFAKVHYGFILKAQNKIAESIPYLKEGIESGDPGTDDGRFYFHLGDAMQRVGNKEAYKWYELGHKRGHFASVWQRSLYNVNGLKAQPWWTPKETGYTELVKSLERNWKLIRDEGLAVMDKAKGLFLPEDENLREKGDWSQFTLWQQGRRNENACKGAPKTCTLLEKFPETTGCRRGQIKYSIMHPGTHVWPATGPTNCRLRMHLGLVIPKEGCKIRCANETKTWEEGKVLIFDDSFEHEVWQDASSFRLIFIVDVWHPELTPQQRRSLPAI
Experimental: Supporting Figure S5. […] Turnover […]
numbers (kapp or k ) and Michaelis constants (Kapp or K ) of the H679A AspH variant were determined in […]
MS (SPE-MS parameters are given i n Section 2 of the Supporting Information ). Conditions: 0.2 μM H679A His6- […]
HEPES (pH 7.5, 20° C). Measurement times were normalized to the first sample injection analysed after the […]
Data are shown as the mean average of three independent runs (n = 3; mean ± standard deviation, SD).
Turnover numbers (kapp or k ) were calculated from the maximum velocities (vapp or v ) values obtained, […]
assuming ideal active site availability as supported by a reported active site titration of wt AspH.[4] […]
substrate in the absence of LAA for the shown Fe(II) concentrations (conditions: 0.2 μM H679A His6-AspH315- […]
substrate in the presence of LAA for the shown Fe(II) concentrations (conditions: 0.2 μM H679A His6-AspH315- […]

[2] = target: T2, H725A His6-AspH315-758 (Homo sapiens, UniProt Q12797, H725A); assay: Steady-state kinetics of H725A AspH by SPE-MS; format: biochemical; conditions: H725A AspH 0.2 μM, parameter for the varied (co)substrate (label), 25 mM HEPES pH 7.5, n=3
T2 construct: containing H679A or H725A His6-AspH315-758 variant (0.2 μM); made in house; host or cells: E. coli BL21 (DE3), pET-28a(+)
T2 sequence (Q12797 315-758 H725A): T1 sequence (Q12797 315-758 H679A) with A365H, H411A
Experimental: page 11: Supporting Figure S6. Kinetic parameters for […] AspH (continues on the following page). Turnover numbers (kapp or k ) and Michaelis constants (Kapp or K ) of the […] AspH-catalysed hydroxylation of […] peptide by SPE- MS (SPE-MS parameters are given in Section 2 of the Supporting Information). […] HEPES (pH 7.5, 20° C). […] Data are shown as the mean average of three independent runs (n = 3; mean ± standard deviation, SD). Turnover numbers (kapp or k ) were calculated from the maximum velocities (vapp or v ) values obtained, cat cat max max assuming ideal active site availability as supported by a reported active site titration of wt AspH.[4] (a) Time course of the […] AspH for Fe(II) in the absence of LAA; (c) Kapp of […] AspH for Fe(II) in the absence m of LAA. (d) Time course of the […] AspH for Fe(II) in the presence of LAA; (f) Kapp of […] AspH for Fe(II) in the m presence of LAA. […] AspH variant-catalysed hydroxylation reaction of […] (k) hydroxylation rates used to determine kinetic parameters of […] AspH for […]. […] AspH for […] peptide substrate. […]

[3] = system: γ‐butyrobetaine hydroxylase; set-up: method as in PMID 22730246; conditions: reported value; cited from earlier work
[4] = target: T1, H679A His6-AspH315-758; assay: H679A AspH variant SPE-MS inhibition assay; format: biochemical
[5] = target: T2, H725A His6-AspH315-758; assay: H725A AspH variant SPE-MS inhibition assay; format: biochemical
[6] = system: wt AspH; conditions: cited from earlier work
[7] = system: T3, wt His6-AspH315-758; assay: Steady-state kinetics of wt AspH by SPE-MS; format: biochemical, human; conditions: wt AspH 0.1 μM, parameter for the varied (co)substrate (label), 25 mM HEPES pH 7.5, 50 mM NaCl, n=3
T3 construct: Conditions: 0.1 μM wt His6-AspH315-758 using; His6 (N); made in house
Experimental: Supporting Figure S4. Kinetic parameters for wt AspH (continues on the following page). Turnover numbers […]
ammonium iron(II) sulfate hexahydrate (FAS, (NH 4)2Fe(SO 4)2·6H2O), both in the presence and absence of L - ascorbic acid (LAA ) monitoring the AspH-catalysed hydroxylation of the hFX-EGFD186-124-4Ser peptide (Supporting Figure S2a) by SPE-MS (SPE-MS parameters are given in Section 2 of the Supporting Information).
Conditions: 0.1 μM wt His6-AspH315-758 using
C; note, to increase enzyme activity, 50 mM NaCl was added to the reaction buffer). Measurement times were normalized to the first sample injection analysed after the addition of the Enzyme Mixture to the Substrate Mixture […]
Data are shown as the mean average of three independent runs (n = 3; mean ± standard deviation, SD). Turnover numbers (kapp) were calculated from the […]
maximum velocities (vapp ) values obtained, assuming ideal active site availability as supported by a reported […]
active site titration of wt AspH.[4]
(a) Time course of the wt AspH-catalysed hydroxylation reaction of the hFX-EGFD186-124-4Ser peptide substrate […]
and 4.0 μM hFX-EGFD1 86-124-4Ser); (b) hydroxylation rates used to determine kinetic parameters of wt AspH for Fe(II) in the absence of LAA; ( c) Kapp of wt AspH for Fe(II) in the absence of LAA.
(d) Time course of the wt AspH-catalysed hydroxylation reaction of the hFX-EGFD186-124-4Ser peptide substrate in the presence of LAA for the shown Fe(II) concentrations (conditions: 0.1 μM wt His6-AspH315-758, 100 μM […]
parameters of wt AspH for Fe(II) in the presence of LAA; (f) Kapp of wt AspH for Fe(II) in the presence of LAA. […]
(g) Time course of the wt AspH-catalysed hydroxylation reaction of the hFX-EGFD186-124-4Ser peptide substrate […]
(1 picture or pasted object on this page, not shown here)

[8] = 0.1 μM H679A AspH, 4.0 μM hFX-EGFD1_86-124-4Ser, 110 μM 2OG, 4 μM Fe^II, SPE-MS, n=2, read-out: IC50
[9] = 0.1 μM H725A AspH, 4.0 μM hFX-EGFD1_86-124-4Ser, 215 μM 2OG, 10 μM Fe^II, SPE-MS, n=2, read-out: IC50

Compound: O=C(O)CCC(=O)C(=O)O [2OG, 2‐oxoglutarate]
Kmapp ([1]; with LAA (400 μM)): 109 ± 20 µM
kcatapp ([1]; with LAA (400 μM)): 0.18 ± 0.01 s⁻¹
Kmapp ([2]; with LAA (400 μM)): 211 ± 65 µM
kcatapp ([2]; with LAA (400 μM)): 0.08 ± 0.01 s⁻¹
2OG Kmapp‐value [3]: 150 to 470 µM

Compound: [Cl-].[Cl-].[Co+2] [CoCl2]
IC50 ([4]; n=2, read-out: IC50): 1500 ± 200 nM
IC50 ([5]; n=2, read-out: IC50): 3000 ± 500 nM
IC50 [6]: 400 ± 200 nM

IC50 [4, 8]: 23100 ± 8600 nM
IC50 [5, 9]: > 40000 nM
Compound: [Cl][Mn][Cl] [MnCl2]
IC50 ([6]; wt AspH, 2 μM Fe^II, 3 μM 2OG): 5100 ± 1100 nM

Compound: O=S(=O)([O-])[O-].[Ni+2] [NiSO4]
IC50 ([4]; read-out: IC50): 2700 ± 400 nM
IC50 ([5]; read-out: IC50): 1800 ± 400 nM
IC50 [6]: 170 ± 80 nM

Compound: O=C(O)CNC(=O)C(=O)O [N‐oxalyl‐glycine (NOG), N‐oxalylglycine]
IC50 ([4]; 0.1 μM H679A AspH, 4.0 μM hFX-EGFD1_86-124-4Ser, 110 μM 2OG, 4 μM Fe^II, SPE-MS, n=2): inactive
IC50 ([4]; 0.1 μM H679A AspH, 4.0 μM hFX-EGFD1_86-124-4Ser, 110 μM 2OG, 4 μM Fe^II, SPE-MS, n=2, listed as NOG): does not apparently inhibit
IC50 ([5]; 0.1 μM H725A AspH, 4.0 μM hFX-EGFD1_86-124-4Ser, 215 μM 2OG, 10 μM Fe^II, SPE-MS, n=2): inactive
IC50 ([5]; 0.1 μM H725A AspH, 4.0 μM hFX-EGFD1_86-124-4Ser, 215 μM 2OG, 10 μM Fe^II, SPE-MS, n=2, listed as NOG): does not apparently inhibit
IC50 [6]: 1100 ± 300 nM

IC50 [4, 8]: 160 ± 10 nM
IC50 [5, 9]: 160 ± 10 nM
Compound: CC(=O)[O-].CC(=O)[O-].[Zn+2] [Zn(OAc)2]
IC50 ([6]; wt AspH, 2 μM Fe^II, 3 μM 2OG): 50 ± 10 nM

Compound: O=C(O)c1ccnc(C(=O)O)c1 [pyridine‐2,4‐dicarboxylic acid]
IC50 ([4]; read-out: IC50): 130 ± 10 nM
IC50 ([5]; read-out: IC50): 11200 ± 1400 nM
IC50 ([6]; wt AspH, 2 μM Fe^II, 3 μM 2OG): 30 ± 10 nM
IC50 ([6]; wt AspH, at 3 μM 2OG): ~30 nM
IC50 ([6]; wt AspH, at 200 μM 2OG): ~100 nM

Kmapp ([1]; with LAA (400 μM)): 2.7 ± 0.5 µM
kcatapp ([1]; with LAA (400 μM)): 0.19 ± 0.01 s⁻¹
Kmapp ([1]; without LAA): 4.4 ± 0.8 µM
kcatapp ([1]; without LAA): 0.18 ± 0.01 s⁻¹
Kmapp ([2]; with LAA (400 μM)): 8.1 ± 1.8 µM
kcatapp ([2]; with LAA (400 μM)): 0.10 ± 0.01 s⁻¹
Kmapp ([2]; without LAA): 12.3 ± 3.0 µM
kcatapp ([2]; without LAA): 0.09 ± 0.01 s⁻¹
Compound: ammonium iron(II) sulfate hexahydrate [Fe^II]
Kmapp ([7]; with LAA (100 μM)): 4.3 ± 1.6 µM
kcatapp ([7]; with LAA (100 μM)): 0.27 ± 0.04 s⁻¹
Kmapp ([7]; without LAA): 7.2 ± 2.6 µM
kcatapp ([7]; without LAA, hFX-EGFD1 peptide hydroxylation): 0.24 ± 0.04 s⁻¹
